Like-named read-outs stand apart in the source and are kept apart here.
Key:
[1] = Extractable organofluorine (EOF) and fluorine mass balance in plasma and tissues at 48 h; assay type: in vivo, rat; settings: for concentration at 48 h: male, RccHan:WIST, rat, read-out: PFOA-fluorine equivalent
Experimental: Plasma and tissue samples taken at 48 h after exposure were subjected to EOF analysis. Extraction procedure followed the procedure described above with the exception that no mass labelled internal standards were spiked to the samples before extraction. The EOF content of the 1 mL extract was analyzed by combustion ion chromatography (CIC). Part of the extract (200 μL) was transferred to a LC vial with the addition of 10 μL of mass-labelled standards; after that, aqueous ammonium acetate (2 mM, 300 μL) was added to the vial for PFAS analysis using LC-MS/MS. The reported EOF concentrations as well as the concentration of PFOA for mass balance analysis were not recovery-corrected.
Levels of EOF in the sample extracts were determined with a combustion ion chromatography (CIC) system consisting of a combustion module (Analytik Jena, Germany), a 920 Absorber Module and a 930 Compact IC Flex ion chromatograph module (both from Metrohm, Switzerland). An ion exchange column (Metrosep A Supp 5–150/4.0), with carbonate buffer (64 mmol/L sodium carbonate and 20 mmol/L sodium bicarbonate) as the mobile phase, was used for the separation of anions; the absorber solution was water. The sample extract (100 μL) was set on a silica boat via an autosampler and placed into a furnace at 900–1000 °C. The combustion of the sample in the furnace converted organic fluorine and inorganic fluorine into hydrogen fluoride (HF), which was then trapped by MilliQ water. The fluoride concentration in the solution was analyzed using ion chromatography. […] Quantification was based on external calibration. The analytical conditions for ion chromatography have been reported elsewhere (Kärrman et al. [2021]).
The measured PFOA concentration (ng/mL) in the sample extract of the EOF analysis was converted to the corresponding fluoride-equivalent concentration (ng/mL F) using the following formula:1 CFPFAS=CPFAS*NF*AF/MWPFAS where CPFAS is the concentration of the target compound (i.e., PFOA), NF is the number of fluorine atoms in the target compound (i.e., 15), AF is the atomic weight of fluorine (g/mol, i.e., 19), and MWPFAS is the molecular weight of the target compound (i.e., 413). The sum of known extractable fluorine concentration (ΣCF_PFAS) was calculated by summing the fluorine concentrations from all individual PFASs. Values below limits of quantification (LOQ) were set for calculating ΣCF_PFAS. Levels of unidentified organofluorine were calculated by subtracting […], which in this present study only PFOA.

[2] = design: method as in Li et al. [2017]; settings: humans, calculated; ref Li et al. [2017]; cited from earlier work
[3] = design: method as in Iwabuchi et al. [2017]; settings: oral 100 μg/kg bw, male rats, ref Iwabuchi et al. [2017], cited from earlier work
[4] = design: method as in Li et al. [2017]; settings: rats; ref Li et al. [2017]; cited from earlier work
albumin in serum = system: albumin in serum; design: method as in Han et al. [2003]; settings: ref Han et al. [2003]; cited from earlier work
[5] = PFOA in terminal plasma, lung lavage and tissues 48 h after dust exposure; assay type: in vivo, rat; settings: for Kp at 48 h / concentration at 48 h: male, RccHan:WIST, rat

SMILES: O=C(O)C(F)(F)C(F)(F)C(F)(F)C(F)(F)C(F)(F)C(F)(F)C(F)(F)F [PFOA, Perfluorooctanoic acid]
- Proportion of PFOA to EOF in plasma ([1]; both exposure groups): 65–71%
- Contribution to EOF (%) ([1]; kidney, inhalation): 81%
- Contribution to EOF (%) ([1]; kidney, oral): 83%
- Contribution to EOF (%) ([1]; liver, inhalation): 87%
- Contribution to EOF (%) ([1]; liver, oral): 83%
- Contribution to EOF (%) ([1]; lung lavage, inhalation): 76%
- Contribution to EOF (%) ([1]; lung lavage, oral): 84%
- Contribution to EOF (%) ([1]; lung, inhalation): 86%
- Contribution to EOF (%) ([1]; lung, oral): 74%
- concentration at 48 h ([1]; 364 μg PFOA/kg BW, kidney, oral): 2160 ± 130 ng/g
- concentration at 48 h ([1]; 364 μg PFOA/kg BW, liver, oral): 6140 ± 340 ng/g
- concentration at 48 h ([1]; 364 μg PFOA/kg BW, lung, oral): 1160 ± 210 ng/g
- concentration at 48 h ([1]; 364 μg PFOA/kg BW, plasma, oral, not recovery-corrected): 1.42 ± 0.24 µg/mL
- concentration at 48 h ([1]; inhaled, 164 μg PFOA/kg BW, kidney, inhalation): 2640 ± 530 ng/g
- concentration at 48 h ([1]; inhaled, 164 μg PFOA/kg BW, liver, inhalation): 6950 ± 650 ng/g
- concentration at 48 h ([1]; inhaled, 164 μg PFOA/kg BW, lung, inhalation): 21500 ± 2750 ng/g
- concentration at 48 h ([1]; inhaled, 164 μg PFOA/kg BW, plasma, inhalation, not recovery-corrected): 1.53 ± 0.17 µg/mL
- concentration at 48 h ([1]; lung lavage (BALF), 364 μg PFOA/kg BW, lung lavage, oral): 0.21 ± 0.02 µg/mL
- concentration at 48 h ([1]; lung lavage (BALF), inhaled, 164 μg PFOA/kg BW, lung lavage, inhalation): 6.87 ± 0.43 µg/mL
- Share of EOF levels explained by measured PFOA, all samples ([1]; plasma and tissues): 65–87%
- Contribution to EOF (%) ([1]; plasma, oral): 65%
- Half-time [2]: 2.3–8.5 years
- Liver to serum ratio ([3]; at Cmax (12 h)): 1.67
- Kidney to serum ratio [3]: 0.82
- Half-time [4]: a few days
- PFOA bound to albumin in serum (albumin in serum): more than 90%
- Liver:plasma ratio of PFOA concentration ([5]; 48 h, inhalation): 5.28 ± 1.3
- Kidney:plasma ratio of PFOA concentration ([5]; 48 h, oral gavage): 1.72 ± 0.3
- Liver:plasma ratio of PFOA concentration ([5]; 48 h, oral gavage): 4.89 ± 1.0
- Levels of PFOA in plasma, liver and kidney, inhalation compared to oral ([5]; 48 h post exposure): twice as high
- PFOA concentration ([5]; kidney, 48 h, inhalation): 3.84 ± 0.8 µg/g
- PFOA concentration ([5]; kidney, 48 h, oral gavage): 3.15 ± 0.2 µg/g
- PFOA concentration ([5]; liver, 48 h, inhalation): 10.1 ± 0.9 µg/g
- PFOA concentration ([5]; liver, 48 h, oral gavage): 8.94 ± 0.5 µg/g
- PFOA concentration ([5]; lung, 48 h, inhalation): 31.3 ± 4.0 µg/g
- PFOA concentration ([5]; lung, 48 h, oral gavage): 1.68 ± 0.3 µg/g
- Kp at 48 h ([5]; kidney, 364 μg PFOA/kg BW, 48 h, oral gavage, read-out: Kidney:plasma ratio of PFOA concentration): 1.72
- concentration at 48 h ([5]; kidney, inhaled, 164 μg PFOA/kg BW, kidney, 48 h, inhalation): 3840 ± 760 ng/g
- Kp at 48 h ([5]; kidney, inhaled, 164 μg PFOA/kg BW, 48 h, inhalation, read-out: Kidney:plasma ratio of PFOA concentration): 2.02 ± 0.7
- concentration at 48 h ([5]; kidney, po, 364 μg PFOA/kg BW, kidney, 48 h, oral gavage): 3150 ± 190 ng/g
- Kp at 48 h ([5]; liver, 364 μg PFOA/kg BW, 48 h, oral gavage, read-out: Liver:plasma ratio of PFOA concentration): 4.89
- concentration at 48 h ([5]; liver, inhaled, 164 μg PFOA/kg BW, liver, 48 h, inhalation): 10100 ± 880 ng/g
- Kp at 48 h ([5]; liver, inhaled, 164 μg PFOA/kg BW, 48 h, inhalation, read-out: Liver:plasma ratio of PFOA concentration): 5.28
- concentration at 48 h ([5]; liver, po, 364 μg PFOA/kg BW, liver, 48 h, oral gavage): 8940 ± 500 ng/g
- concentration at 48 h ([5]; lung lavage (BALF), inhaled, 164 μg PFOA/kg BW, lung lavage, 48 h, inhalation): 9.98 ± 0.63 µg/mL
- concentration at 48 h ([5]; lung lavage (BALF), po, 364 μg PFOA/kg BW, lung lavage, 48 h, oral gavage): 0.31 ± 0.02 µg/mL
- concentration at 48 h ([5]; lung, inhaled, 164 μg PFOA/kg BW, lung, 48 h, inhalation): 31300 ± 4000 ng/g
- concentration at 48 h ([5]; lung, po, 364 μg PFOA/kg BW, lung, 48 h, oral gavage): 1680 ± 310 ng/g
- concentration at 48 h ([5]; plasma, inhaled, 164 μg PFOA/kg BW, terminal plasma, 48 h, inhalation of PFOA-coated dust (164 μg PFOA/kg BW)): 2.03 ± 0.32 µg/mL
- concentration at 48 h ([5]; plasma, po, 364 μg PFOA/kg BW, terminal plasma, 48 h, oral gavage of PFOA-coated dust (364 μg PFOA/kg BW)): 1.87 ± 0.35 µg/mL
- Distribution of PFOA to liver and kidney, inhalation compared to oral gavage ([5]; post exposure): ~2.5 times
- PFOA concentration ([5]; terminal plasma, 48 h, inhalation of PFOA-coated dust (164 μg PFOA/kg BW)): 1.97 ± 0.32 ng/µL

— publication PMC9587079, “Bioavailability of inhaled or ingested PFOA adsorbed to house dust” (Environmental Science and Pollution Research International, 2022)
